From patent US20080300298A1, “Honokiol Derivates For the Treatment of Proliferative Disorders” (priority 2005, published 2008)
Values after ≈ are worked out from the molar mass of the structure shown.

Assays:
[1] = test system: AKT, p44/42 MAPK, and Src phosphorylation in SVR cells; assay: Western blotting of phosphorylated intracellular proteins; assay type: cell-based
Description: FIG. 14 depicts the effects of honokiol on the phosphorylation of various intracellular proteins. […] Cells were lysed and analyzed by Western blotting using antibodies specific for the phosphorylated (P-AKT, P-MAPK, and P-Src) or unphosphorylated forms of AKT and MAPK. […] Cells were lysed and analyzed by Western blotting using antibodies specific for the phosphorylated (P-Akt, P-MAPK, and P-Src) or unphosphorylated forms of Akt and MAPK.

JNK in CH12.LX cells = assay: JNK phosphorylation (Western blotting); assay type: cell-based, mouse; details: CH12.LX cells transfected with hCD40-LMP1
Description: The cells were pelleted by centrifugation, lysed and analyzed by SDS PAGE and Western blotting. Peroxidase-labeled antibodies were visualized on Western blots using a chemilluminescent detection reagent to assay for JNK phosphorylation.

normal PBMNCs = assay: cells; assay type: cell-based; details: Homo sapiens
Description: Cells: Dexamethasone (Dex)-sensitive MM.1S (wild-type p53) and Dex-resistant MM.1R, RPMI 8226-Dox40 (doxorubicin resistant) and RPMI 8226-LR5 (melphalan resistant) human multiple myeloma (MM) cell lines were used. RPMI-8226 and U266 cells were obtained from the American Type Culture Collection (Rockville, Md.). SU-DHL-4 cells were also utilized. Fresh peripheral blood mononuclear cells (PBMNCs) were obtained from healthy subjects after informed consent. The PBMNC were separated from heparinized peripheral blood by Ficoll-Hipaque density sedimentation. BM specimens were acquired from patients with MM after obtaining informed consent and mononuclear cells were separated by Ficoll-Hipaque density sedimentation. […]
Reagents: Honokiol (HNK; Calbiochem, San Diego, Calif.) was dissolved in ethanol at 20 mg/ml stock solution. […] Absorbance readings at a wavelength of 450 nm were taken on a spectrophotometer (Molecular Devices Corp., Sunnyvale, Calif.).
HNK inhibits growth of MM cell lines. To identify the therapeutic potential of HNK, MM cell lines and normal PBMNCs were cultured at indicated concentration with HNK for 48 h, and growth was determined by calorimetric assays. […] FIGS. 6A and B show growth inhibition in MM cell lines by HNK as assessed by calorimetric assay after 48 h-culture. […]

KBM-5 cells = details: KBM-5, 72 h, with TNF, paclitaxel or doxorubicin
Description: KBM-5 cells (5000 cells/0.1 ml) were incubated at 37° C. with TNF, paclitaxel or doxorubicin in the presence and absence of 5 mM honokiol as indicated for 72 h, and the viable cells were assayed using the MTT reagent. The results are expressed as mean cytotoxicity ±SD from triplicate cultures.
Cytotoxicity assay Cytotoxicity was assayed by the modified tetrazolium salt 3-(4-5-dimethylthilozol-2-yl)-2-5-diphenyl-tetrazolium bromide (MTT) assay as described previously (Bharti, A. C., et al. 2004 J. Biol. Chem. 279:6065-6076).
The effect of honokiol on TNF and chemotherapeutic agent-induced apoptosis was examined by the MTT assay.

C=CCc1ccc(O)c(-c2ccc(O)c(CC=C)c2)c1 [HNK, Honokiol]
phosphorylation of Akt, p44/42 MAPK, Src at low concentrations ([1]; 2.7, 6.7 or 13.3 μg/ml, 2, 6 or 24 h): inhibits phosphorylation of Akt at low concentrations but not p44/42 MAPK or Src
phosphorylation of AKT, p44/42 MAPK, and Src ([1]; 20, 30, 40 or 45 μg/ml, 1 h): inhibits phosphorylation of AKT, p44/42 MAPK, and Src
JNK phosphorylation (JNK in CH12.LX cells): inhibited by honokiol in a dose dependent manner
IC50 (normal PBMNCs): 40 to 80 µg/mL (≈ 150 to 300 µM)
cytotoxic effects of TNF and chemotherapeutic agents (MTT) (KBM-5 cells): enhanced the cytotoxic effects of TNF, paclitaxel, and doxorubicin
